Format in all cases: in vivo
The test system of one data set is pigweed (Amaranthus sp.). Nature of the data set: Pot study, % control of pigweed (Example 2). Particulars: 1.0 mg/mL. As to the method:
A pot study is conducted to test the phytotoxicity of thaxtomin A on corn (Zea mays var. Early Sunglow) and wheat (Triticum aestivum var. PR1404). To confirm the activity on broadleaf weeds, pigweed (Amaranthus sp.) is planted in the same pot with either three corn or five wheat seeds, and sprayed simultaneously with the cereal test plants. The less than 3-inch tall plants grown under growth lights (12-h light/12-h dark) at 28° C. are sprayed with thaxtomin A solutions derived from a liquid culture of S. acidiscabies containing 0.5, and 1.0 mg thaxtomin A per mL of solvent (4% ethanol and 0.2% non-ionic surfactant). A solution of 4% ethanol +0.2% non-ionic surfactant without thaxtomin A is used as a control treatment. Each treatment is conducted in three replicates. Treated plants are kept at 28° C. under growth lights and observed at three time points—7, 14 and 21 days after treatment—for visual symptoms of phytotoxicity on corn and wheat and % control of pigweed.

Data set [1] concerns sorghum (Sorghum bicolor). Description: Phytotoxicity on sorghum plants (Example 3). To be noted: 0.5 and 1.0 mg thaxtomin A/mL, three weeks after the treatment. As to the method: To test the phytotoxicity of thaxtomin A on sorghum plants, five seeds of sorghum (Sorghum bicolor) are planted in each 4″×4″ plastic pot filled with soil. Plants were grown under optimal conditions in a greenhouse before and after treatment with solutions containing 0.5 and 1.0 mg thaxtomin A/mL. At the time of the treatment, the plants are about 3 inches tall. Each treatment is applied in three replicates, and a control treatment included plants treated with just the carrier (4% EtOH, 0.02% polysorbate 60 POE (20) sorbitan monostearate). Evaluations for phytotoxicity are performed at 7-day intervals starting one week after treatment.

Data set [2] has as its system Smallflower umbrella sedge. Nature of the data set: Post-emergent MBI-005 + Thiobencarb on Smallflower umbrella sedge (Example 21). To be noted: 14 days. As to the method:
[…] Negative controls were sprayed with water. Pots were randomly placed in a growth room at 25° C. and 50% RH, and watered as necessary. Treatments were replicated three times and evaluated at 7 and 14 days for visual % damage, with 0% indicating no damage and 100% indicating plant death.
Synergy was calculated as the ratio of observed (E) to expected (E/Ee) percent control using Colby's formula.

In data set [3] the test system is Bindweed (Convolvulus arvensis). Description: Post-emergence test of MBI-005, lab (Example 13). How it is done: (§1) To further describe the spectrum of post-emergence activity, tests were conducted in laboratory and field conditions. For laboratory testing, 3-10 plants (depending on the species) at the 1-2 leaf stage plants in 2.5 cm square pots containing Sunshine Mix No. 2 planting media were sprayed at 1 mg MBI-005/mL at a rate of 40 gal/A using a cabinet track sprayer. Negative controls were sprayed with water and positive controls with glufosinate. Pots were randomly placed in a growth room at 25° C. and 50% RH, and watered as necessary. Treatments were replicated five times and evaluated at 7 and 14 days for visual % damage, with 0% indicating no damage and 100% indicating plant death.

Data set [4] relates to Mallow (Malva parviflora). Description: Post-emergence test of MBI-005, lab (Example 13). As to the method: as §1
Data set [5] deals with Redstem filaree (Erodium cicutarium). Description: Post-emergence test of MBI-005, lab (Example 13). How it is done: as §1
Data set [6] deals with Dandelion (Taraxacum oficinale). Nature of the data set: Post-emergence test of MBI-005, lab (Example 13). How it is done: as §1
In data set [7] the test system is Sunflower (Helianthus anuus). Nature of the data set: Post-emergence test of MBI-005, lab (Example 13). As to the method: as §1
Data set [8] relates to Yellow nutsedge (Cyperus esculentus). Description: Post-emergence test of MBI-005, lab (Example 13). As to the method:
as §1

For data set [9], the system named is Lambsquarters (Chenopodium album). Nature of the data set: Post-emergence test of MBI-005, lab (Example 13). How it is done: as §1
Data set [10] relates to Mustard (Brassica juncea). Description: Post-emergence test of MBI-005, lab (Example 13). How it is done: as §1
The test system of another data set is sprangletop. Nature of the data set: Field study on rice, weed count (Example 6). To be noted: Thaxtomin A 180 g/acre, per plot. How it is done:
(§2) The efficacy of thaxtomin A derived from a liquid culture of S. acidiscabies is tested in a field study on rice using 4.9 sq-ft plots surrounded by a metal ring. Treatments with either thaxtomin A or thaxtomin A in combination with lemongrass oil (formulated as GreenMatch EX) or cyhalofop (formulated as Clincher CA) were done using a hand-held sprayer with a water volume corresponding to 57 gallons per acre. Rice (variety M209) was grown until maturity and harvested by hand for yield and weed count assessment. Results of yield (kg/ha), and numbers of redstem, small-flower umbrella sedge, and sprangletop in each plot are presented in Table 3 below.

The subject of data set [11] is small-flower umbrella sedge. Description: Field study on rice, weed count (Example 6). To be noted: Thaxtomin A 180 g/acre, per plot. How it is done: as §2
Another data set concerns redstem. Description: Field study on rice, weed count (Example 6). Particulars: Thaxtomin A 180 g/acre; per plot. As to the method: as §2

`CN1C(=O)[C@](O)(Cc2cccc(O)c2)N(C)C(=O)[C@@H]1Cc1c[nH]c2cccc([N+](=O)[O-])c12` [thaxtomin A]: in the data set on pigweed (Amaranthus sp.), the control of pigweed result is listed as “complete control”. The phytotoxicity entry in data set [1] is on record as “no phytotoxicity is observed”. Besides, the “Observed Average % Efficacy (E)” value in data set [2] (first series, 2% MBI-005) is 20. %; in data set [2] (first series, .5% MBI-005), 3.3%; in [2] (second series, 1% MBI-005), 10.0%; in data set [2] (second series, 2% MBI-005), 79.2%. The “Rating at 1 mg/ml (Post-Emergence % control)” value is reported as “+ (0-50)” in [3]; “+ (0-50)” in data set [4]; “++ (51-80)” in [5]; “++ (51-80)” in [6]; “++ (51-80)” in data set [7]; “+ (0-50)” in [8]. Besides, the “Rating at 1 mg/ml (Post-Emergence % control)” value in data set [9] is given as “+++ (81-90)”; in data set [10], “++++ (91-100)”. Besides, the “# of sprangletop” value in the data set with sprangletop (listed as Thaxtomin A) was 76.0a; in the data set on sprangletop (listed as thaxtomin), “no effect”. Moreover, the “# of sedge” value in data set [11] (listed as Thaxtomin A) was 1.0a; in [11] (listed as thaxtomin), “significantly reduced the number of sedges”. In addition, the “# of redstem” value in the data set on redstem was 0.5b.

The values are drawn from patent publication US9066516B2, “Uses of thaxtomin and thaxtomin compositions as herbicides” (priority 2008, dated 2015).
